Reference: patent US20060287397A1, “Dl-hydroxy-alkyl-phenylamides having anticonvulsive activity” (priority 2002, published 2006)
Where two headings read alike, the source gives them in different places.

Columns and labels:
[1] = system: Seizures induced by pentylenetetrazol (PTZ) in mice; test: Pentylenetetrazol test (anticonvulsant activity); assay type: in vivo; settings: for ED50: Mus musculus, ip, 0.5 h; for ED50 / ED50 PTZ: male CF-1 mice, compound i.p., pentylenetetrazol 100 mg kg^−1 i.p. 30 min after, end point suppression of clonic seizures and death; for anticonvulsant activity relative to that of the non-halogenated compounds: pentylenetetrazol test, mice, from Table 1
Method: Male albino mice CF-1 strain (National Institute of Virology, Mexico City) weighing 18-25 g were housed in groups of 20, at room temperature (20-24° C.), with tap water and food (pellet type Blue Bonnet) ad libitum, with a 12-h light-dark cycle. DL-2-hydroxy-2-phenyl butyramide, DL-3-hydroxy-3-phenyl pentanamide, DL-4-hydroxy-4-phenyl hexanamide and pentylenetetrazol were dissolved in water and compounds 1-10 were dissolved in a 30% polyethyleneglycol-400 solution. All the compounds used were administered intraperitoneally (i.p.). The convulsant dose of pentylenetetrazol inducing seizures and death in 100% of mice (CD100) was determined and used in the test. CD100 value obtained was 100 mg kg^1. To determine the dose-response curves five separate groups of 10-20 mice were dosed i.p. with the test compounds, and pentylenetetrazol, 100 mg kg^−1, i.p., was administered at 30 min after. The suppression of clonic seizures and death was considered the end point of the test. […] The ED50 and 95% confidence intervals were calculated by the method of Litchfield and Wilcoxon (Table 1). See Litchfield et al., J. Pharmacol. Exp. Ther. 96, 99 (1949).

hippocampal kindling [2] = settings: cats; cited from earlier work
hippocampal kindling [3] = settings: rats; cited from earlier work
[4] = system: seizures provoked by pentylenetetrazole, bicuculline, 4-aminopyridine, thiosemicarbazide and maximal electroshock; settings: mice; cited from earlier work
[5] = system: γ-aminobutyric acid withdrawal syndrome; settings: rats; cited from earlier work
focal spike activity = settings: genetic absence epilepsy rats of the Strasbourg model; cited from earlier work

SMILES | ED50 [1] [mg/kg] | anticonvulsant activity relative to that of the non-halogenated compounds [1] | other results
CCC(O)(C(N)=O)c1cc(C(F)(F)F)cc(C(F)(F)F)c1 (racemic) [Compound 1, DL-2-hydroxy-2-(3′,5′-bistrifluoromethylphenyl) butyramide] | 10 | more than fivefold, sixfold or sevenfold | –
CCC(O)(C(N)=O)c1ccc(C(F)(F)F)cc1 (racemic) [Compound 2, DL-2-hydroxy-2-(4′-trifluoromethylphenyl)butyramide] | 23 | twice, threefold or more than fourfold | –
CCC(O)(C(N)=O)c1ccc(Cl)c(Cl)c1 (racemic) [Compound 3, DL-2-hydroxy-2-(3′,4′-dichlorophenyl)butyramide] | 10 | more than fivefold, sixfold or sevenfold | –
CCC(O)(C(N)=O)c1cccc(Br)c1 (racemic) [Compound 4, DL-2-hydroxy-2-(3′-bromophenyl)butyramide] | 8 | more than fivefold, sixfold or sevenfold | –
CCC(O)(C(N)=O)c1ccc(Br)cc1 (racemic) [Compound 5, DL-2-hydroxy-2-(4′-bromophenyl)butyramide] | 8 | more than fivefold, sixfold or sevenfold | –
CCC(O)(C(N)=O)c1cccc([N+](=O)[O-])c1 (racemic) [Compound 6, DL-2-hydroxy-2-(3′-nitrophenyl)butyramide] | 36 | twice, threefold or more than fourfold | –
CCC(O)(CC(N)=O)c1ccc(Cl)c(Cl)c1 (racemic) [Compound 7, DL-3-hydroxy-3-(3′,4′-dichlorophenyl)pentanamide] | 16 | twice, threefold or more than fourfold | –
CCC(O)(CC(N)=O)c1ccc(Br)cc1 (racemic) [Compound 8, DL-3-hydroxy-3-(4′-bromophenyl) pentanamide] | 8 | more than fivefold, sixfold or sevenfold | –
CCC(O)(CCC(N)=O)c1ccc(Cl)c(Cl)c1 (racemic) [Compound 9, DL-4-hydroxy-4-(3′,4′-dichlorophenyl)hexanamide] | 12 | twice, threefold or more than fourfold | –
CCC(O)(CCC(N)=O)c1ccc(Br)cc1 (racemic) [Compound 10, DL-4-hydroxy-4-(4′-bromophenyl)hexanamide] | 9 | more than fivefold, sixfold or sevenfold | –
CCC(O)(C(N)=O)c1ccccc1 (racemic) [DL-2-hydroxy-2-Phenyl butyramide, DL-2-hydroxy-2-phenylbutyramide] | – | – | protection against hippocampal kindling (hippocampal kindling [2]): protect cats and rats against hippocampal kindling; ED50 PTZ [1]: 58 mgkg^−1; protection against hippocampal kindling (hippocampal kindling [3]): protect cats and rats against hippocampal kindling; protection against seizures [4]: protect mice against seizures
CCC(O)(CC(N)=O)c1ccccc1 (racemic) [DL-3-hydroxy-3-Phenyl pentanamide, DL-3-hydroxy-3-phenylpentanamide] | – | – | protection against γ-aminobutyric acid withdrawal syndrome [5]: protects rats against the γ-aminobutyric acid withdrawal syndrome; protection against hippocampal kindling (hippocampal kindling [2]): protect cats and rats against hippocampal kindling; ED50 PTZ [1]: 49 mgkg^−1; protection against hippocampal kindling (hippocampal kindling [3]): protect cats and rats against hippocampal kindling; protection against seizures [4]: protect mice against seizures; focal spike activity (focal spike activity): significant decrease of focal spike activity
CCC(O)(CCC(N)=O)c1ccccc1 (racemic) [DL-4-hydroxy-4-Phenylhexanamide, DL-4-hydroxy-4-phenylhexanamide] | – | – | protection against hippocampal kindling (hippocampal kindling [2]): protect cats and rats against hippocampal kindling; ED50 PTZ [1]: 55 mgkg^−1; protection against hippocampal kindling (hippocampal kindling [3]): protect cats and rats against hippocampal kindling; protection against seizures [4]: protect mice against seizures
